The subject of data set [1] is KB-8-5-11 cells. In words: Drug sensitivity assay, KB-8-5-11 cells (P-gp-positive). The data set is classed as cell-based, human. The following applies: for IC50: Homo sapiens, human KB-8-5-11 cells, read-out: 50% growth inhibitory dose of the drug. On the procedure:
(§1) Drug sensitivity assays. To estimate drug-mediated growth inhibition, 10^3 cells were plated per well of 96-well plates, and incubated with a range of concentrations of drugs added 24 hours after plating. After 5 to […] of drug treatment, plates were fixed and stained using 2% methylene blue solution in 50% methanol. After elution by 1% SDS solution, optical density was determined on a Multiscan Ascent reader (Lybsystems, Helsinki, Finland) at 650 nm.
(§2) To determine transporter specificity of the identified compounds, the compounds were tested on cells differing in the type of multidrug transporter expressed: KB-8-5-11 cells, (expressing P-gp), SW1753-A120 cells (expressing MRP1), and KB-3-1 (expressing neither of the above transporters and highly sensitive to drugs that are P-gp or MRP1 substrates).

Data set [2] has as its system ConA cells. Kind of data set: Drug sensitivity (growth inhibition) assay, ConA cells. Type of data set: cell-based, mouse. To be noted: for IC50: Mus musculus, murine ConA cells, read-out: 50% growth inhibitory dose of the drug. Here is the method:
Drug sensitivity assays. To estimate drug-mediated growth inhibition, 10^3 cells were plated per well of 96-well plates, and incubated with a range of concentrations of drugs added 24 hours after plating. […] After elution by 1% SDS solution, optical density was determined on a Multiscan Ascent reader (Lybsystems, Helsinki, Finland) at 650 nm.

The test system of data set [3] is P-gp. On the procedure: as §1
(§3) Drug accumulation and efflux assay. […] For drug efflux assay, cells after drug incubation were washed thoroughly with PBS, incubated in a drug-free media with or without compounds from the chemical library, and harvested at different time points for flow cytometric analysis (18).

Data set [4] deals with P-gp. Kind of data set: Rho123 accumulation in ConA cells. Type of data set: cell-based, mouse. To be noted: identified compounds present. On the procedure: Screening of a chemical library. Murine fibroblastoid cell line (ConA) was selected as the readout system for screening a chemical library for P-gp activators. […] Rho123, a classic fluorescent P-gp substrate that is detected easily using multichannel fluorimeter in living cells, was used as an efflux indicator. […] Primary screening was performed on ConA cells for compounds that interfere with Adr-induced activation of p53-responsive reporter LacZ gene as previously described (11). To identify P-gp modulators, all “hits” isolated after primary screening were tested for their ability to modulate cellular accumulation of Rho123. Con A cells grown in 96-well plates were incubated 4 hours with 0.5 μM Rho123 in combination with individual library compounds (2 μg/ml (2-5 μM)), and cell fluorescence was analyzed using fluorescent microscopy.
as §3
ConA cells were incubated two hours with Rho123 ([…]) or daunorubicin (500 ng/ml) in the presence of the identified compounds, and accumulation of the drugs was quantitated by flow cytometry.

Data set [5] deals with P-gp. Kind of data set: Rho123 efflux from preloaded ConA cells. The data set is classed as cell-based, mouse. To be noted: ConA cells preloaded with Rho123, Compound 102 present. On the procedure: as §3
The dynamics of reduction of Rho123 fluorescence was monitored by flow cytometry.

Data set [6] has as its system SW1753-A120 cells. Kind of data set: Drug sensitivity assay, SW1753-A120 cells (expressing MRP1). Type of data set: cell-based. To be noted: P-gp-negative, MRP1-positive cells SW1753-A120 (FIG. 13). Here is the method: as §2
In data set [7] the test system is KB-3-1 cells. In words: Drug sensitivity assay, KB-3-1 cells (P-gp-negative). Type of data set: cell-based, human. On the procedure: as §1, §2

Structures are written as SMILES. Values after ≈ are worked out from the molar mass of the structure shown. “Also recorded” adds a separate entry of the source. Read-outs that look alike come from different tables or passages of the source.

For `COc1cccc2c1C(=O)c1c(O)c3c(c(O)c1C2=O)C[C@@](O)(C(=O)CO)C[C@@H]3O[C@H]1C[C@H](N)[C@H](O)[C@H](C)O1` [Doxorubicin, adriamycin], the IC50 came out at 1.2 µg/mL (≈ 2.21 µM) in data set [1] (with Compound 102), 0.2 µg/mL (≈ 0.368 µM) in data set [1] (without Compound 102), 0.3 µg/mL (≈ 0.552 µM) in data set [2] (with Compound 102) and 0.05 µg/mL (≈ 0.092 µM) in data set [2] (without Compound 102). Besides, the “Change in sensitivity (x-fold)” value in data set [2] (ConA cells, Compound 102 (10 μM), fold resistance) is recorded as 6 x-fold. The “Effect of Compound 102 on drug sensitivity of cell lines: ConA (Balb 3T3)” value in data set [2] (P-gp-positive ConA cells, label = drug) is “R”. For the same compound, the “cytotoxicity of the drug in the presence of Compound 102” value in data set [3] was “less toxic”.

For the compound `COC(=O)[C@H]1[C@H]2C[C@@H]3c4[nH]c5cc(OC)ccc5c4CCN3C[C@H]2C[C@@H](OC(=O)c2cc(OC)c(OC)c(OC)c2)[C@@H]1OC` [reserpine], in data set [4], the “effect of P-gp inhibitor on compound-mediated reduction of Adr and Rho123 accumulation” value is “completely reverted”. Moreover, in data set [5], the “effect of P-gp inhibitor on Compound 102-stimulated Rho123 efflux” value is “completely reverted”.

As for `Cc1ccccc1Cn1c(=O)sc2ccccc21` [Compound 103], the “cell sensitivity to doxorubicin” value in data set [1] (P-gp-positive cells KB-8-5-11 (FIG. 15)) is reported as “increase cell sensitivity”; in data set [7] (P-gp- and MRP1-negative cells KB-3-1 (FIG. 17)), “can increase cell resistance”. For the same compound, the “cell sensitivity to vinblastine” value is “increases; also recorded: weak sensitizing effect” in data set [6]; “weak sensitizing effect” in data set [7] (P-gp- and MRP1-negative cells KB-3-1 (FIG. 14)).
